Read-outs that look alike come from different tables or passages of the source.
How the values were obtained:
[1] = tested on: reactive oxygen species (ROS) on ex vivo skin; experiment: DCF assay, ROS score on ex vivo skin, aqueous/alcoholic (ethanolic) test system; assay type: cell-based; conditions: vehicle (EtOH/H2O) plus alkanediol only
Method: A dichlorofluorescein test (DCF) assay was performed in order to determine the amount of reactive oxygen species (ROS) on ex vivo skin treated with different test samples in a lipophilic or an aqueous/alcoholic system as described below.
DCF assay—assay principle: Ex vivo skin was incubated with 2′,7′-dichlorodihydrofluorescein diacetate at 37° C., 5% CO2. After PBS washing, samples were exposed or not to cumene hydroperoxide. Immediately after exposure, ex vivo skin samples were frozen in liquid nitrogen and 5 μm cryostat sections were made and fixed with acetone to allow the visualisation of fluorescence generated by ROS in cells of the reconstructed skins. The resulting fluorescence was measured at EX/EM 504/524 nm. Green fluorescence was quantified in ex vivo skin using ImageJ software. The depth of immunostaining was measured as follows: green DCFH-DE positive cells were automatically detected using Histolab software and the distance between dermal epidermal junction and the deepest positive cells were measured in each condition. Means were compared using a student's test. […]
The image acquisition was performed by using Olympus BX51 microscope and Olympus DP70 camera. For each skin sample two skin sections have been taken and the related fluorescent images acquired and analyzed. Thus, for each test condition, 12 images have been acquired and analyzed (i.e. 12 data). […]

[2] = tested on: Aspergillus brasiliensis; experiment: MIC and Kull synergy index of 1,2-/2,3-alkanediol mixtures; assay type: cell-based
[3] = tested on: human sebaceous glands; experiment: Sebum production of micro-dissected, cultured human sebaceous glands (lipids/proteins after six days); assay type: cell-based; design: sebum reduction: concentration or dose not given beside the values; conditions: compared to untreated control; six days; single donor (FIG. 4)
Method: Additional tests were performed with human sebaceous glands in order to verify the modulatory activity of different 1,2-alkanediols and 2,3-alkanediols on sebum secretion. Several microbial species on the skin are lipid dependent and feed on the human sebum (e.g. Corynebacterium, Propionibacterium). Accordingly, sebum reduction can indirectly support the reduction of microorganisms on the skin and in this way also indirectly support e.g. dandruff or acne reduction.
For these experiments sebaceous glands had been micro-dissected and cultured with medium. The medium without any supplement served as untreated control. Medium with 5 μM Capsaicin served as positive control. Additionally, culture medium was supplemented with different concentrations of alkanediols. After six days the sebaceous glands were collected and lipids and proteins quantified. The total lipid amount being representative of sebum production was obtained by normalizing the quantified lipids upon the quantified proteins (i.e. mg of lipids/mg of proteins).

[4] = Sensory evaluation on the backside of the hand (spreading, fatty/greasy skin feel, absorption), untrained panellists; conditions: for Absorption/remaining residue with alkanediol: scale 1 to 5
Method: For evaluating the sensory behaviour, liquid lipophilic components specified in the following table were blended with 1,2-heptanediol or 2,3-heptanediol or a mixture of 1,2-heptanediol and 2,3-heptanediol or 1,2-octanediol or 2,3-octanediol or a mixture of 1,2-octanediol and 2,3-octanediol (formulation) in a ratio of 85:15 and assessed by untrained panellists in comparison to the liquid lipophilic component without addition of the specified alkanediols (placebo).
The test procedure was carried as follows: For evaluating the sensory behaviour of 1,2-alkanediols and/or 2,3-alkanediols in combination with different liquid lipophilic components, oil components specified in the following table were blended with a 1,2-alkanediol or a 2,3-alkanediol or a mixture including a 1,2-alkanediol and a 2,3-alkanediol in a ratio as specified in Table 53 and assessed by untrained panellists in comparison to the liquid lipophilic component without addition of the 1,2-alkanediol or 2,3-alkanediol or the mixture including a 1,2-alkanediol and 2,3-alkanediol (placebo).
Test Procedure: • Hands were pre-washed with liquid soap by following a defined procedure; 30 μl of corresponding sample was applied on the backside of each hand (randomized); • After 30 s the spreading behaviour of the respective formulation on skin was evaluated versus the respective oil component without 1,2-heptanediol on a scale from 1 to 5 (1=low spreading; 5=high spreading); • The samples were distributed with the fingertips of middle and forefinger with 2×5 cycles; • After 2 minutes, the fatty/greasy skin feel was evaluated on a scale from 1 to 5 (1=low fatty/greasy skin feel; 5=high fatty/greasy skin feel); • Furthermore the applicants were asked to assess the absorption, i.e. the impression of amount of remaining residue on the skin on a scale from 1 to 5 (1=low absorption; 5=high absorption).

[5] = blend with Argan Oil vs without
[6] = blend with Avocado Oil vs without
[7] = blend with Cacao butter vs without
[8] = blend with Caprylic Capric Triglyceride (neutral oil), rows r50-r56, vs without
[9] = blend with Caprylic Capric Triglyceride (neutral oil), rows r50-r56
[10] = blend with Castor Oil vs without
[11] = blend with Cetearyl Nonanoate, rows r199-r201, vs without
[12] = blend with Cetearyl Nonanoate, rows r199-r201
[13] = blend with Coconut Oil vs without
[14] = blend with Grapeseed Oil vs without
[15] = blend with Helianthus Annuus (Sunflower) Seed Oil vs without
[16] = blend with Helianthus Annuus (Sunflower) Seed Oil
[17] = blend with Octocrylene (Neo Heliopan 303), vs without
[18] = blend with Octocrylene (Neo Heliopan 303)
[19] = blend with Olive Oil vs without
[20] = single 2,3-alkanediol, read-out: MIC Component B

SMILES: CCCCCC(O)CO (centres unmarked) [1,2-heptanediol]
- antioxidative efficacy without antioxidant (in words) [1]: do not have an antioxidative efficacy
- MIC ([2]; single 1,2-alkanediol, read-out: MIC Component A): 5000 µg/mL
- sebum reduction [3]: 22%
- Absorption/remaining residue Delta [4, 5]: 1
- Absorption/remaining residue with alkanediol ([4]; blend with Argan Oil): 2.8
- Absorption/remaining residue Delta [4, 6]: 1.2
- Absorption/remaining residue with alkanediol ([4]; blend with Avocado Oil): 2.6
- Absorption/remaining residue Delta ([4]; blend with Butyrospermum Parkii (Shea) Butter vs without): 1.5
- Absorption/remaining residue with alkanediol ([4]; blend with Butyrospermum Parkii (Shea) Butter): 2.7
- Absorption/remaining residue Delta [4, 7]: 0
- Absorption/remaining residue with alkanediol ([4]; blend with Cacao butter): 3.6
- Absorption/remaining residue Delta [4, 8]: 0.6
- Absorption/remaining residue with alkanediol [4, 9]: 2.7
- Absorption/remaining residue Delta [4, 10]: 0.4
- Absorption/remaining residue with alkanediol ([4]; blend with Castor Oil): 4
- Absorption/remaining residue Delta ([4]; blend with Cetearyl Nonanoate (SymMollient S), row r161, vs without): 1.2
- Absorption/remaining residue with alkanediol ([4]; blend with Cetearyl Nonanoate (SymMollient S), row r161): 2
- Absorption/remaining residue Delta [4, 11]: 1.6
- Absorption/remaining residue with alkanediol [4, 12]: 3.2
- Absorption/remaining residue Delta ([4]; blend with Chlorella oil (biotech) vs without): 0.2
- Absorption/remaining residue with alkanediol ([4]; blend with Chlorella oil (biotech)): 3
- Absorption/remaining residue Delta [4, 13]: 1.4
- Absorption/remaining residue with alkanediol ([4]; blend with Coconut Oil): 2
- Absorption/remaining residue Delta ([4]; blend with Ethylhexyl Methoxycinnamate (Neo Heliopan AV) vs without): 0.5
- Absorption/remaining residue with alkanediol ([4]; blend with Ethylhexyl Methoxycinnamate (Neo Heliopan AV)): 3
- Absorption/remaining residue Delta ([4]; blend with Ethylhexyl Salicylate (Neo Heliopan OS) vs without): 1.3
- Absorption/remaining residue with alkanediol ([4]; blend with Ethylhexyl Salicylate (Neo Heliopan OS)): 2.2
- Absorption/remaining residue Delta [4, 14]: 0.2
- Absorption/remaining residue with alkanediol ([4]; blend with Grapeseed Oil): 2.8
- Absorption/remaining residue Delta [4, 15]: 1.3
- Absorption/remaining residue with alkanediol [4, 16]: 2
- Absorption/remaining residue Delta ([4]; blend with Hexyldecanol (Eutanol G) vs without): 0.2
- Absorption/remaining residue with alkanediol ([4]; blend with Hexyldecanol (Eutanol G)): 2.7
- Absorption/remaining residue Delta ([4]; blend with Homosalate (Neo Heliopan HMS) vs without): 0.3
- Absorption/remaining residue with alkanediol ([4]; blend with Homosalate (Neo Heliopan HMS)): 2.5
- Absorption/remaining residue Delta ([4]; blend with Isoamyl p-Methoxycinnamate (Neo Heliopan E 1000) vs without): 1.7
- Absorption/remaining residue with alkanediol ([4]; blend with Isoamyl p-Methoxycinnamate (Neo Heliopan E 1000)): 2.5
- Absorption/remaining residue Delta ([4]; blend with Microalgae oil vs without): 1.2
- Absorption/remaining residue with alkanediol ([4]; blend with Microalgae oil): 2.5
- Absorption/remaining residue Delta ([4]; blend with Octocrylene (Neo Heliopan 303), row r184 (UV filter), vs without): 1.3
- Absorption/remaining residue with alkanediol ([4]; blend with Octocrylene (Neo Heliopan 303), row r184 (UV filter)): 2.7
- Absorption/remaining residue Delta [4, 17]: 0.5
- Absorption/remaining residue with alkanediol [4, 18]: 3.5
- Absorption/remaining residue Delta [4, 19]: 1.6
- Absorption/remaining residue with alkanediol ([4]; blend with Olive Oil): 2.4
- Absorption/remaining residue Delta ([4]; blend with Propanediol Dicaprylate/Dicaprate (Symollient PDCC) vs without): 0.1
- Absorption/remaining residue with alkanediol ([4]; blend with Propanediol Dicaprylate/Dicaprate (Symollient PDCC)): 2.4
- Absorption/remaining residue Delta ([4]; blend with Prunus Amygdalus Dulcis (Sweet Almond) Oil vs without): 1.5
- Absorption/remaining residue with alkanediol ([4]; blend with Prunus Amygdalus Dulcis (Sweet Almond) Oil): 2.2
- Absorption/remaining residue Delta ([4]; blend with Simmondsia Chinensis (Jojoba) Seed Oil vs without): 1.2
- Absorption/remaining residue with alkanediol ([4]; blend with Simmondsia Chinensis (Jojoba) Seed Oil): 2.5

SMILES: CCCCC(O)C(C)O (centres unmarked) [2,3-heptanediol]
- antioxidative efficacy without antioxidant (in words) [1]: do not have an antioxidative efficacy
- MIC [2, 20]: 7500 µg/mL
- sebum reduction [3]: 30%
- Absorption/remaining residue Delta [4, 5]: 1.4
- Absorption/remaining residue with alkanediol ([4]; blend with Argan Oil): 2.4
- Absorption/remaining residue Delta [4, 6]: 1.4
- Absorption/remaining residue with alkanediol ([4]; blend with Avocado Oil): 2.4
- Absorption/remaining residue Delta [4, 7]: 0.4
- Absorption/remaining residue with alkanediol ([4]; blend with Cacao butter): 3.2
- Absorption/remaining residue Delta [4, 8]: 0.3
- Absorption/remaining residue with alkanediol [4, 9]: 3
- Absorption/remaining residue Delta [4, 10]: 0.6
- Absorption/remaining residue with alkanediol ([4]; blend with Castor Oil): 3.8
- Absorption/remaining residue Delta [4, 11]: 1.0
- Absorption/remaining residue with alkanediol [4, 12]: 3.8
- Absorption/remaining residue Delta [4, 13]: 1
- Absorption/remaining residue with alkanediol ([4]; blend with Coconut Oil): 2.4
- Absorption/remaining residue Delta [4, 14]: 0.8
- Absorption/remaining residue with alkanediol ([4]; blend with Grapeseed Oil): 2.2
- Absorption/remaining residue Delta [4, 15]: 1
- Absorption/remaining residue with alkanediol [4, 16]: 2.6
- Absorption/remaining residue Delta [4, 17]: 0.5
- Absorption/remaining residue with alkanediol [4, 18]: 3.5
- Absorption/remaining residue Delta [4, 19]: 2
- Absorption/remaining residue with alkanediol ([4]; blend with Olive Oil): 2

SMILES: CCCCCC(O)C(C)O (centres unmarked) [2,3-octanediol]
- MIC [2, 20]: 2500 µg/mL
- Absorption/remaining residue Delta [4, 5]: 1.6
- Absorption/remaining residue with alkanediol ([4]; blend with Argan Oil): 2.2
- Absorption/remaining residue Delta [4, 6]: 1.4
- Absorption/remaining residue with alkanediol ([4]; blend with Avocado Oil): 2.4
- Absorption/remaining residue Delta [4, 7]: 0.8
- Absorption/remaining residue with alkanediol ([4]; blend with Cacao butter): 2.8
- Absorption/remaining residue Delta [4, 10]: 1.4
- Absorption/remaining residue with alkanediol ([4]; blend with Castor Oil): 3
- Absorption/remaining residue Delta [4, 13]: 1.2
- Absorption/remaining residue with alkanediol ([4]; blend with Coconut Oil): 2.6
- Absorption/remaining residue Delta [4, 14]: 0.2
- Absorption/remaining residue with alkanediol ([4]; blend with Grapeseed Oil): 2.4
- Absorption/remaining residue Delta [4, 15]: 0.4
- Absorption/remaining residue with alkanediol [4, 16]: 3.4
- Absorption/remaining residue Delta [4, 17]: 1.5
- Absorption/remaining residue with alkanediol [4, 18]: 2.5
- Absorption/remaining residue Delta [4, 19]: 1.4
- Absorption/remaining residue with alkanediol ([4]; blend with Olive Oil): 2.6
